Assay results taken from US8354416B2 (Glaxo Group Limited, priority 2005, dated 2013).

Tested on: influx of neutrophils to the lung in LPS-challenged rats
Assay: Rat LPS neutrophilia model
Type: in vivo
Conditions: intratracheal, LPS aerosol 100 ug/ml, in at least one of the range of conditions tested, significance p<0.05
Protocol: Rat LPS Neutrophilia Model
The effect of compounds on the influx of neutrophils to the lung in LPS-challenged rats is evaluated as follows. The test compound is suspended in one of the following solutions: 0.5% tween 80/PBS, 0.5% tween 80/saline, 10% EtOH/saline (with pH adjusted to 2.0, or 8.0 with HCl, or unadjusted), Saline (pH 2.0, 6.5 or 8.0, 0.5% Tragacanth, 1% DMSO/20% Encapsin/Saline, or acidified 5% Tragacanth. The suspension process may be aided by the use of a glass homogenizer. For intratracheal administration, the animals are anesthetized with inhaled isoflurane and placed in a supine position, the trachea is intubated with a steel gavage needle (1.5 inch, 22 gauge, small ball) or a Penn-Century Microsprayer Aerosolizer (model IA-1B) and 200 ul of dosing solution is delivered. The animals are visually monitored during the recovery process, which typically occurs within two minutes. It is noted that the test compounds may be alternatively administered via the microsprayer in a dry powder blend with a suitable excipient, such as lactose.
Rats treated with compound or vehicle (15 min-24 hours pretreatment) are exposed to an LPS aerosol (100 ug/ml) for 15 min. Four hours later the rats are euthanized with pentobarbital (100 mg/kg, i.p.) and the airways are lavaged with 5 washes of 5 ml of phosphate buffered saline. The harvested cells are stained (Diffquick) and counted to determine total and differential cell data. […] Inhibition of neutrophil levels relative to no compound controls is calculated based on the differential counts.
The data is obtained as % inhibition using a particular concentration and pretreat time.

| Structure (SMILES) | inhibition of neutrophilia (neutrophil levels in airway lavage relative to no compound controls) |
| --- | --- |
| Cc1ccc(C(=O)Nc2ccc(F)cc2)cc1-c1nc(N2CCC(N3CCC(C)CC3)CC2)nc2c1ccc(=O)n2-c1c(F)cccc1F [Example 174, 3-[8-(2,6-difluorophenyl)-2-(4-methyl-1,4′-bipiperidin-1′-yl)-7-oxo-7,8-dihydropyrido[2,3-d]pyrimidin-4-yl]-N-(4-fluorophenyl)-4-methylbenzamide] | inactive |
| CCNC(=O)c1ccc(C)c(-c2nc(N3CCC(N4CCC(C)CC4)CC3)nc3c2ccc(=O)n3-c2c(F)cccc2F)c1 [Example 173, 3-[8-(2,6-difluorophenyl)-2-(4-methyl-1,4′-bipiperidin-1′-yl)-7-oxo-7,8-dihydropyrido[2,3-d]pyrimidin-4-yl]-N-ethyl-4-methylbenzamide] | statistically significant inhibition of neutrophilia |
| Cc1ccc(C(=O)Nc2ccc(F)cc2)cc1-c1nc(N(C)CCCN(C)C)nc2c1ccc(=O)n2-c1c(F)cccc1F [Example 115, 3-{8-(2,6-difluorophenyl)-2-[[3-(dimethylamino)propyl](methyl)amino]-7-oxo-7,8-dihydropyrido[2,3-d]pyrimidin-4-yl}-N-(4-fluorophenyl)-4-methylbenzamide] | statistically nonsignificant inhibition of neutrophilia |
| Cc1ccc(C(=O)NCC(F)(F)F)cc1-c1nc(N2CCC(N3CCC(C)CC3)CC2)nc2c1ccc(=O)n2-c1c(F)cccc1F [Example 172, 3-[8-(2,6-difluorophenyl)-2-(4-methyl-1,4′-bipiperidin-1′-yl)-7-oxo-7,8-dihydropyrido[2,3-d]pyrimidin-4-yl]-4-methyl-N-(2,2,2-trifluoroethyl)benzamide] | inactive |
| Cc1ccc(C(=O)Nc2nccs2)cc1-c1nc(NCCCNC(C)C)nc2c1ccc(=O)n2-c1c(F)cccc1F [Example 101, 3-[8-(2,6-difluorophenyl)-2-({3-[(1-methylethyl)amino]propyl}amino)-7-oxo-7,8-dihydropyrido[2,3-d]pyrimidin-4-yl]-4-methyl-N-1,3-thiazol-2-ylbenzamide] | statistically significant inhibition of neutrophilia |
| Cc1ccc(C(=O)Nc2ccc(F)cc2)cc1-c1nc(N(C)CCN(C)C)nc2c1ccc(=O)n2-c1c(F)cccc1F [Example 99, 3-{8-(2,6-difluorophenyl)-2-[[2-(dimethylamino)ethyl](methyl)amino]-7-oxo-7,8-dihydropyrido[2,3-d]pyrimidin-4-yl}-N-(4-fluorophenyl)-4-methylbenzamide] | statistically nonsignificant inhibition of neutrophilia |
| CNCCNc1nc(-c2cc(C(=O)NCc3ccccc3)ccc2C)c2ccc(=O)n(-c3c(F)cccc3F)c2n1 [Example 59, 3-(8-(2,6-difluorophenyl)-2-{[2-(methylamino)ethyl]amino}-7-oxo-7,8-dihydropyrido[2,3-d]pyrimidin-4-yl)-4-methyl-N-(phenylmethyl)benzamide] | statistically significant inhibition of neutrophilia |
| Cc1ccc(C(=O)Nc2nccs2)cc1-c1nc(NCCCNC(C)(C)C)nc2c1ccc(=O)n2-c1c(F)cccc1F [Example 102, 3-[8-(2,6-difluorophenyl)-2-({3-[(1,1-dimethylethyl)amino]propyl}amino)-7-oxo-7,8-dihydropyrido[2,3-d]pyrimidin-4-yl]-4-methyl-N-1,3-thiazol-2-ylbenzamide] | statistically nonsignificant inhibition of neutrophilia |
| CCN(CC)CCCNc1nc(-c2cc(C(=O)NCCOC)ccc2C)c2ccc(=O)n(-c3c(F)cccc3F)c2n1 [Example 134, 3-[2-{[3-(diethylamino)propyl]amino}-8-(2,6-difluorophenyl)-7-oxo-7,8-dihydropyrido[2,3-d]pyrimidin-4-yl]-4-methyl-N-[2-(methyloxy)ethyl]benzamidetrifluoroacetate] | statistically nonsignificant inhibition of neutrophilia |
| Cc1ccc(C(=O)Nc2ccc(F)cc2)cc1-c1nc(N2CCC(N)CC2)nc2c1ccc(=O)n2-c1c(F)cccc1F [Example 72, 3-[2-(4-amino-1-piperidinyl)-8-(2,6-difluorophenyl)-7-oxo-7,8-dihydropyrido[2,3-d]pyrimidin-4-yl]-N-(4-fluorophenyl)-4-methylbenzamide] | statistically significant inhibition of neutrophilia |
| Cc1ccc(C(=O)Nc2nccs2)cc1-c1nc(N2CCC(N)CC2)nc2c1ccc(=O)n2-c1c(F)cccc1F [Example 73, 3-[2-(4-amino-1-piperidinyl)-8-(2,6-difluorophenyl)-7-oxo-7,8-dihydropyrido[2,3-d]pyrimidin-4-yl]-4-methyl-N-1,3-thiazol-2-ylbenzamide] | statistically significant inhibition of neutrophilia |
| CNC1CCN(c2nc(-c3cc(C(=O)NC(C)C)ccc3C)c3ccc(=O)n(-c4c(F)cccc4F)c3n2)CC1 [113(b), 3-{8-(2,6-difluorophenyl)-2-[4-(methylamino)-1-piperidinyl]-7-oxo-7,8-dihydropyrido[2,3-d]pyrimidin-4-yl}-4-methyl-N-(1-methylethyl)benzamide] | statistically nonsignificant inhibition of neutrophilia |
| CCN(CC)CCCNc1nc(-c2cc(C(=O)NC)ccc2C)c2ccc(=O)n(-c3c(F)cccc3F)c2n1 [Example 119, 3-[2-{[3-(diethylamino)propyl]amino}-8-(2,6-difluorophenyl)-7-oxo-7,8-dihydropyrido[2,3-d]pyrimidin-4-yl]-N,4-dimethylbenzamide] | statistically significant inhibition of neutrophilia |
| Cc1ccc(C(=O)NC2CC2)cc1-c1nc(N2CCC(N)CC2)nc2c1ccc(=O)n2-c1c(F)cccc1F [Example 22, 3-[2-(4-amino-1-piperidinyl)-8-(2,6-difluorophenyl)-7-oxo-7,8-dihydropyrido[2,3-d]pyrimidin-4-yl]-N-cyclopropyl-4-methylbenzamide] | statistically significant inhibition of neutrophilia |
| CNCCNc1nc(-c2cc(C(=O)NCCc3ccccc3)ccc2C)c2ccc(=O)n(-c3c(F)cccc3F)c2n1 [Example 29, 3-(8-(2,6-difluorophenyl)-2-{[2-(methylamino)ethyl]amino}-7-oxo-7,8-dihydropyrido[2,3-d]pyrimidin-4-yl)-4-methyl-N-(2-phenylethyl)benzamide] | statistically significant inhibition of neutrophilia |
| Cc1ccc(C(=O)NCCc2ccccc2)cc1-c1nc(NC2CC(C)(C)NC(C)(C)C2)nc2c1ccc(=O)n2-c1c(F)cccc1F [Example 28, 3-{8-(2,6-difluorophenyl)-7-oxo-2-[(2,2,6,6-tetramethyl-4-piperidinyl)amino]-7,8-dihydropyrido[2,3-d]pyrimidin-4-yl}-4-methyl-N-(2-phenylethyl)benzamide] | statistically nonsignificant inhibition of neutrophilia |
| CNCCNc1nc(-c2cc(C(=O)Nc3nccs3)ccc2C)c2ccc(=O)n(-c3c(F)cccc3F)c2n1 [Example 61, 3-(8-(2,6-difluorophenyl)-2-{[2-(methylamino)ethyl]amino}-7-oxo-7,8-dihydropyrido[2,3-d]pyrimidin-4-yl)-4-methyl-N-1,3-thiazol-2-ylbenzamide] | statistically significant inhibition of neutrophilia |
| Cc1ccc(C(=O)Nc2ccc(F)cc2)cc1-c1nc(NCCN(C)C)nc2c1ccc(=O)n2-c1c(F)cccc1F [Example 112, 3-(8-(2,6-difluorophenyl)-2-{[2-(dimethylamino)ethyl]amino}-7-oxo-7,8-dihydropyrido[2,3-d]pyrimidin-4-yl)-N-(4-fluorophenyl)-4-methylbenzamide] | statistically nonsignificant inhibition of neutrophilia |
| Cc1ccc(C(=O)Nc2nccs2)cc1-c1nc(N(C)CCCN(C)C)nc2c1ccc(=O)n2-c1c(F)cccc1F [Example 107, 3-{8-(2,6-difluorophenyl)-2-[[3-(dimethylamino)propyl](methyl)amino]-7-oxo-7,8-dihydropyrido[2,3-d]pyrimidin-4-yl}-4-methyl-N-1,3-thiazol-2-ylbenzamide] | statistically significant inhibition of neutrophilia |
| Cc1ccc(C(=O)NCC2CC2)cc1-c1nc(N2CCC(N)CC2)nc2c1ccc(=O)n2-c1c(F)cccc1F [Example 27, 3-[2-(4-amino-1-piperidinyl)-8-(2,6-difluorophenyl)-7-oxo-7,8-dihydropyrido[2,3-d]pyrimidin-4-yl]-N-(cyclopropylmethyl)-4-methylbenzamide] | statistically significant inhibition of neutrophilia |
